In US20240067654A1 (Kinoxis Therapeutics Pyt Ltd, priority 2020, published 2024):
One block for each compound: values may come before it.

Legend:
[1] = biological target: T1, OTR (Homo sapiens, UniProt P30559); assay: Modulation of oxytocin-evoked intracellular IP1 and Ca2+ increase: OT dose-response in presence and absence of 10 μM compound; settings: for change in OT potency seen in OT dose-response curves (figure legend): 10 μM of compound; for Relative Potency: OT potency with 10 μM compound relative to OT only
T1 sequence (P30559 1-389): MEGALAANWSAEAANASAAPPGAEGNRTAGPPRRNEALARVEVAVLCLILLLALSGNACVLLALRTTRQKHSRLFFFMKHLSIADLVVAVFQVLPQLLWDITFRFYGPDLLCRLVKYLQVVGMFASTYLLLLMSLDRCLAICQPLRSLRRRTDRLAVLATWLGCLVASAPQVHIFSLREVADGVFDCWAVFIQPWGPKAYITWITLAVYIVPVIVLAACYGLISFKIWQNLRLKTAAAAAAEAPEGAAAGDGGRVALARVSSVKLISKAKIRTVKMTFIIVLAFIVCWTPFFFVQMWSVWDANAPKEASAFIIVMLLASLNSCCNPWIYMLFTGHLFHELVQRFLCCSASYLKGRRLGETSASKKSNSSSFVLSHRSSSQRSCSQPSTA
Experimental: These assays were performed using commercial kits (IP1 HTRF from Cisbio and Fluo-4AM from Invitrogen), according to the manufacturer's protocol.

[2] = biological target: T1, OTR; assay: Tritiated OT (3H-OT) displacement; assay type: binding; design: expressed in transfected cells; host or cells: HEK cells, Flp-In TREX system (Invitrogen); settings: Kd concentration of 3H-OT; compound at a concentration up to 10 μM
[3] = biological target: T1, OTR; assay: Calcium (Ca2+) influx induced by OT in the presence of various concentrations of compound 3 (HEK assay); assay type: cell-based; design: expressed in transfected cells; host or cells: HEK cells, Flp-In TREX system (Invitrogen)
[4] = biological target: rat V1aR (Rattus norvegicus, UniProt P30560); settings: cited from earlier work
Chain of rat V1aR (P30560 whole entry): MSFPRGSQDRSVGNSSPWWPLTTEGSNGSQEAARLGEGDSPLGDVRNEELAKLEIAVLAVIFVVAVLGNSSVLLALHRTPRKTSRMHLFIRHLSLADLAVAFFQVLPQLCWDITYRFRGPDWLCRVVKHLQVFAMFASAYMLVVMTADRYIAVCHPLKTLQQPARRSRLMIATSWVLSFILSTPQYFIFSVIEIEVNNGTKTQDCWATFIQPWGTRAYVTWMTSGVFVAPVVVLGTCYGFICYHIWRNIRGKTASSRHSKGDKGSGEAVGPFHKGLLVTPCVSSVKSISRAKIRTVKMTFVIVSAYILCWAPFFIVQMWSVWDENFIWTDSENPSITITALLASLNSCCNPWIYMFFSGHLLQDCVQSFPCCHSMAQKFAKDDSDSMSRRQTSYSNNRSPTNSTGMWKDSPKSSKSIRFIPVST

[5] = biological target: human V1aR (Homo sapiens, UniProt P37288); settings: cited from earlier work
Chain of human V1aR (P37288 whole entry): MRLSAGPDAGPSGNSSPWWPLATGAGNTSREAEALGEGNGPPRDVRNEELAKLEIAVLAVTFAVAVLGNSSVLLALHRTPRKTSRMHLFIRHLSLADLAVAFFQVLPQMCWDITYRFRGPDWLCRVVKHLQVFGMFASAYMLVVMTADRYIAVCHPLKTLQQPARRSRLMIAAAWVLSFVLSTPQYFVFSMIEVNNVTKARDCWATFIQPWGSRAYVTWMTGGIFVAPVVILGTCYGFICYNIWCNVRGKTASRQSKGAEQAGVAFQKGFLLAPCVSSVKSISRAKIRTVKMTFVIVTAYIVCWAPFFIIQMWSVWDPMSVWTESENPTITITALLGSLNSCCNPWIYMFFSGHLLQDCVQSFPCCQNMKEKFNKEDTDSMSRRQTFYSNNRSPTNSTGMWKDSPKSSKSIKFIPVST

[6] = rat, in vivo; cited from earlier work
[7] = in vivo; cited from earlier work

SMILES: Cn1ncc2c1c1ccccc1n2C(=O)C1CCCCC1 [Compound 3]
melting point: 140.3 to 141.2 °C
change in OT potency seen in OT dose-response curves (figure legend) [1]: improvement in OT potency
Relative Potency ([1]; Table 2 group): 5.5
displacement of the binding of 3H-OT [2]: None of compounds 1, 2 or 3 displaced ^3H-OT
Relative Potency ([3]; OT + 0.01 μM compound 3, relative to 0 μM): 0.64
Relative Potency ([3]; OT + 0.03 μM compound 3, relative to 0 μM): 0.47
Relative Potency ([3]; OT + 0.3 μM compound 3, relative to 0 μM): 2.83
Relative Potency ([3]; OT + 1 μM compound 3, relative to 0 μM): 3.90
Relative Potency ([3]; OT + 10 μM compound 3, relative to 0 μM): 19.0

SMILES: Cn1ncc2c1c1ccccc1n2C(=O)C1CCCC1 [Compound 12]
change in OT potency seen in OT dose-response curves (figure legend) [1]: improvement in OT potency
Relative Potency ([1]; Table 4 group): 2.3

SMILES: Cn1ncc2c1c1ccccc1n2C(=O)C1CCCCCC1 [Compound 13]
change in OT potency seen in OT dose-response curves (figure legend) [1]: improvement in OT potency
Relative Potency ([1]; Table 4 group): 2.5

SMILES: CCCCC(=O)n1c2ccccc2c2c1cnn2C [Compound 14]
change in OT potency seen in OT dose-response curves (figure legend) [1]: improvement in OT potency
Relative Potency ([1]; Table 7 group): 2.6

SMILES: Cn1ncc2c1c1ccccc1n2C(=O)C1CCOCC1 [Compound 16]
change in OT potency seen in OT dose-response curves (figure legend) [1]: improvement in OT potency
Relative Potency ([1]; Table 7 group): 2.6

SMILES: Cn1ncc2c1c1ccccc1n2C(=O)C12CC3CC(CC(C3)C1)C2 [Compound 23]
change in OT potency seen in OT dose-response curves (figure legend) [1]: improvement in OT potency
Relative Potency ([1]; Table 4 group): 3.4

SMILES: Cn1ccc2c1c1ccccc1n2C(=O)C1CCCCC1 [Compound 35]
change in OT potency seen in OT dose-response curves (figure legend) [1]: improvement in OT potency
Relative Potency ([1]; Table 9 group): 3.7

SMILES: Cn1ncc2c1c1ccccc1n2C(=O)N1CCCCC1 [Compound 42]
change in OT potency seen in OT dose-response curves (figure legend) [1]: improvement in OT potency
Relative Potency ([1]; Table 6 group): 2.3

SMILES: Cn1ncc2c1c1ccccc1n2S(=O)(=O)C1CCCCC1 [Compound 43]
change in OT potency seen in OT dose-response curves (figure legend) [1]: improvement in OT potency
Relative Potency ([1]; Table 6 group): 2.6

SMILES: CC[C@H](C)[C@@H]1NC(=O)[C@H](Cc2ccc(O)cc2)NC(=O)[C@@H](N)CSSC[C@@H](C(=O)N2CCC[C@H]2C(=O)N[C@@H](CC(C)C)C(=O)NCC(N)=O)NC(=O)[C@H](CC(N)=O)NC(=O)[C@H](CCC(N)=O)NC1=O [OT, Oxytocin]
affinity of OT at V1aR [4]: 78 nM
affinity of OT at V1aR [5]: 120 nM
half-life in blood [6]: 3 to 8 min
fraction of intranasal OT that enters the brain [7]: 0.002-0.005%

Further lines, with some results ahead:

melting point: 152.6 to 153.2 °C
change in OT potency seen in OT dose-response curves (figure legend) [1]: improvement in OT potency
Relative Potency ([1]; Table 2 group): 10.4
SMILES: Cn1ncc2c1c1ccccc1n2C(=O)c1ccccc1 [Compound 1]
displacement of the binding of 3H-OT [2]: None of compounds 1, 2 or 3 displaced ^3H-OT

melting point: 91.1 to 92.8 °C
change in OT potency seen in OT dose-response curves (figure legend) [1]: improvement in OT potency
Relative Potency ([1]; Table 2 group): 8.4
SMILES: Cn1ncc2c1c1ccccc1n2C(=O)c1cccc(F)c1 [Compound 2]
displacement of the binding of 3H-OT [2]: None of compounds 1, 2 or 3 displaced ^3H-OT

melting point: 167 to 169 °C
change in OT potency seen in OT dose-response curves (figure legend) [1]: improvement in OT potency
Relative Potency ([1]; Table 3 group): 2.9
SMILES: Cc1ccc(C(=O)n2c3ccccc3c3c2cnn3C)cc1 [Compound 4]

melting point: 145 to 147 °C
change in OT potency seen in OT dose-response curves (figure legend) [1]: improvement in OT potency
Relative Potency ([1]; Table 3 group): 3.1
SMILES: Cn1ncc2c1c1ccccc1n2C(=O)c1ccc(Cl)cc1 [Compound 5]

melting point: 142 to 143 °C
change in OT potency seen in OT dose-response curves (figure legend) [1]: improvement in OT potency
Relative Potency ([1]; Table 3 group): 2.9
SMILES: Cn1ncc2c1c1ccccc1n2C(=O)c1ccc(Cl)c(Cl)c1 [Compound 6]

melting point: 136 to 138 °C
change in OT potency seen in OT dose-response curves (figure legend) [1]: improvement in OT potency
Relative Potency ([1]; Table 7 group): 2.1
SMILES: COc1ccc(C(=O)n2c3ccccc3c3c2cnn3C)cc1 [Compound 7]

change in OT potency seen in OT dose-response curves (figure legend) [1]: improvement in OT potency
Relative Potency ([1]; Table 7 group): 2.5
SMILES: Cn1ncc2c1c1ccccc1n2C(=O)c1ccc(F)cc1 [Compound 10]

change in OT potency seen in OT dose-response curves (figure legend) [1]: improvement in OT potency
Relative Potency ([1]; Table 8 group, n = 2): 2.8
SMILES: Cn1ncc2c1c1ccccc1n2C(=O)c1cccc2ncccc12 [Compound 29]

Relative Potency ([1]; Table 5 group): 5.0
SMILES: Cn1ncc2c3ccccc3n(C(=O)c3ccccc3)c21 [Compound 31]

Relative Potency ([1]; Table 5 group): 3.4
SMILES: Cn1ncc2c3ccccc3n(C(=O)c3cccc(F)c3)c21 [Compound 32]

Relative Potency ([1]; Table 5 group): 3.7
SMILES: Cn1ncc2c3ccccc3n(C(=O)C3CCCCC3)c21 [Compound 33]
